Data as given in patent publication US8426588B2, “Phenylalanine derivatives” (Ajinomoto Co, Inc., priority 2000, dated 2013).

Legend:
[1] = target: T1, integrin α4β1 (Homo sapiens, UniProt P05556+P13612); assay: VCAM antagonist activity (VCAM-1/α4β1 binding assay), Jurkat cells binding to VCAM-1; assay type: cell-based; settings: Jurkat human T cells binding to recombinant human VCAM-1; read-out: VCAM antagonistic activity (IC50) α4β1
T1 construct: cell strain Jurkat (ATCC TIB-152) of human T cells, known to express integrin α4β1; endogenous in cells; host or cells: Jurkat (ATCC TIB-152)
Description: VCAM Antagonist Activity (VCAM-1/α4β1 Binding Assay)
The capacity of a test substance antagonistic to the binding of cell strain Jurkat (ATCC TIB-152) of human T cells, known to express integrin α4β1, to VCAM-1 was determined.
(§1) 100 μl/well of a solution (500 ng/ml) of recombinant human VCAM-1 (R & D systems) solution diluted with buffer A (0.1 M NaHCO3, pH 9.6) was added to a micro titer plate having 96 wells (Nunc Maxisorp). After the incubation at 4° C. overnight, unbound VCAM-1 was removed by washing once with PBS. After completion of the washing, a buffer (buffer B) obtained by diluting Block Ace (Dainippon Pharmaceutical Co., Ltd.) with PBS to ¼ concentration was added in an amount of 150 μl/well. After the incubation at room temperature for 1 hour, buffer B was removed and the plate was washed with PBS once.
Jurkat cells were washed with Dulbecco modified Eagle medium (SIGMA, hereinafter referred to as “DMEM”) twice and then incubated in DMEM containing 10 μg/ml of Calcein-AM (Wako Pure Chemical Industries, Ltd.) at 37° C. in dark place for 30 minutes to label with fluorescence. The cells were again suspended in a binding buffer (20 mM HEPES, DMEM containing 0.1% BSA).
(§2) 50 μl of a test substance of various concentrations obtained by the dilution with the binding buffer was added to the plate. Immediately thereafter, 50 μl (final volume: 100 μl/well) of the fluorescent Jurkat cells (4×10^6 cells/ml) were added thereto, and they were incubated in dark place at room temperature for 30 minutes. After the shaking on a plate shaker (IKA MTS-4) at 800 rpm for 30 seconds, the solution was immediately removed to remove the unbound cells. The fluorescence quantity of the bound cells remaining in the wells was determined with a fluorescent plate reader (Wallac 1920 ARVO multi-label counter) (filter excitation wave length: 485 nm, emission wave length: 535 nm). The fluorescent strength thus obtained is proportional to the number of Jurkat cells bound to VCAM-1 and remaining on the plate. The binding rate of each test material in various concentrations was determined while the fluorescent strength of the test material-free well was determined to be 100%.

[2] = target: T2, integrin α4β7 (Homo sapiens, UniProt P13612+P26010); assay: VCAM antagonistic activity (VCAM-1/α4β7 binding assay), RPMI-8866 cells binding to VCAM-1; assay type: cell-based; settings: RPMI-8866 human B lymphoma cells binding to recombinant human VCAM-1; binding buffer with 4 mM MnCl2
T2 construct: lymphoma cell strain RPMI-8866 of human B cells, known to express integrin α4β7; endogenous in cells; host or cells: RPMI-8866
T2 sequence (P13612 34-1032): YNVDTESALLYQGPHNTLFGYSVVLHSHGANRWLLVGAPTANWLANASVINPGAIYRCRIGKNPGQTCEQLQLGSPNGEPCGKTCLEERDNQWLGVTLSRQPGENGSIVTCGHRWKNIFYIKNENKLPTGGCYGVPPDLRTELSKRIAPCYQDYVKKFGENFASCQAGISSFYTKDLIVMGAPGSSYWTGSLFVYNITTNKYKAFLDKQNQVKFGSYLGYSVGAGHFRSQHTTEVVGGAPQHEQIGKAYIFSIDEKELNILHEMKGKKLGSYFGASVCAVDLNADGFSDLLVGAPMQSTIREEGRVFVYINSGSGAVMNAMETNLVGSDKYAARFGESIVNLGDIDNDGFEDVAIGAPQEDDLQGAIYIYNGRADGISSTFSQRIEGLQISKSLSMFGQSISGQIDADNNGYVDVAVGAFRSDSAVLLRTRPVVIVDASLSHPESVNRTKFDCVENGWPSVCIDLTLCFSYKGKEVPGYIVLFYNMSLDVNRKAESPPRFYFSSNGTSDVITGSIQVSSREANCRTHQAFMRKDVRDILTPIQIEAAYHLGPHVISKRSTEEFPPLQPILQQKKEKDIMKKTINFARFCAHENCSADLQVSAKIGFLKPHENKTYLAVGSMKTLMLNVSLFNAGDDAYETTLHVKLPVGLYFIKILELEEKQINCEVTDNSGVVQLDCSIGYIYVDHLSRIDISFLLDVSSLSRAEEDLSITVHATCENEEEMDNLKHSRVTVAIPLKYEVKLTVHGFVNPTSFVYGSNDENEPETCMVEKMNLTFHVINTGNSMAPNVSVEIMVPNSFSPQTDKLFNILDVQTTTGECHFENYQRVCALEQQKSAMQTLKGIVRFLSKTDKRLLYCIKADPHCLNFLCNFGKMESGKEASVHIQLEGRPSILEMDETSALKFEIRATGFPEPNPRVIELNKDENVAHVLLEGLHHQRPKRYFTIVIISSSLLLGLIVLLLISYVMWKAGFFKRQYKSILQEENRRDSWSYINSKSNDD
T2 sequence (P26010 20-798): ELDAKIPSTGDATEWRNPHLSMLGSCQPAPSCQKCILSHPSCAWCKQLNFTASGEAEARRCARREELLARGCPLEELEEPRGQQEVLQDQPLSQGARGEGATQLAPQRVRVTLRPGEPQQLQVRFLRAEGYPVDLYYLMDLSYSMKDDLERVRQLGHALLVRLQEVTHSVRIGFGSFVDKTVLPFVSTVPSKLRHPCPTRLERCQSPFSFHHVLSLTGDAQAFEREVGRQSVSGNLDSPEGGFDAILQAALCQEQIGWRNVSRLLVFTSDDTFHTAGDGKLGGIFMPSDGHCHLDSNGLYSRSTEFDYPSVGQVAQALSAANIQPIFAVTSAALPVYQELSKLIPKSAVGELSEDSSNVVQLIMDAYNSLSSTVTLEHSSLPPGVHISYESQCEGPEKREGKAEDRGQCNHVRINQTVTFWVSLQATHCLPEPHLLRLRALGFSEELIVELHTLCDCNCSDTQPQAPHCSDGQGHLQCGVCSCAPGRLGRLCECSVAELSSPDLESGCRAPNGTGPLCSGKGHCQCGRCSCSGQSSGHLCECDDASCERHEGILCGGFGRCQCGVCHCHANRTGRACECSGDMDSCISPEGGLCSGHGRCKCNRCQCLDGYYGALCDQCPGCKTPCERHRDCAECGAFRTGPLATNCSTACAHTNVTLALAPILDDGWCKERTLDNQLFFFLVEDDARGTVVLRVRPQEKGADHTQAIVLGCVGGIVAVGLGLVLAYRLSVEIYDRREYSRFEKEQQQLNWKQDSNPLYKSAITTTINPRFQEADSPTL
Description: VCAM Antagonistic Activity (VCAM-1/α4β7 Binding Assay)
The capacity of a test substance antagonistic to the binding of lymphoma cell strain RPMI-8866 of human B cells, known to express integrin α4β7, to VCAM-1 was determined.
as §1
RPMI-8866 cells were washed with DMEM twice and incubated in Dulbecco modified Eagle medium containing 10 μg/ml of Calcein-AM (Wako Pure Chemical Industries, Ltd.) (SIGMA, hereinafter referred to as “DMEM”) in dark place at 37° C. for 30 minutes to label with fluorescence. The cells were again suspended in a binding buffer (20 mM HEPES, DMEM containing 0.1% BSA) containing 4 mM of MnCl2.
as §2, with “RPMI-8866” for “Jurkat”, “1420” for “1920”

T1 sequence (P05556 21-798, one chain of several): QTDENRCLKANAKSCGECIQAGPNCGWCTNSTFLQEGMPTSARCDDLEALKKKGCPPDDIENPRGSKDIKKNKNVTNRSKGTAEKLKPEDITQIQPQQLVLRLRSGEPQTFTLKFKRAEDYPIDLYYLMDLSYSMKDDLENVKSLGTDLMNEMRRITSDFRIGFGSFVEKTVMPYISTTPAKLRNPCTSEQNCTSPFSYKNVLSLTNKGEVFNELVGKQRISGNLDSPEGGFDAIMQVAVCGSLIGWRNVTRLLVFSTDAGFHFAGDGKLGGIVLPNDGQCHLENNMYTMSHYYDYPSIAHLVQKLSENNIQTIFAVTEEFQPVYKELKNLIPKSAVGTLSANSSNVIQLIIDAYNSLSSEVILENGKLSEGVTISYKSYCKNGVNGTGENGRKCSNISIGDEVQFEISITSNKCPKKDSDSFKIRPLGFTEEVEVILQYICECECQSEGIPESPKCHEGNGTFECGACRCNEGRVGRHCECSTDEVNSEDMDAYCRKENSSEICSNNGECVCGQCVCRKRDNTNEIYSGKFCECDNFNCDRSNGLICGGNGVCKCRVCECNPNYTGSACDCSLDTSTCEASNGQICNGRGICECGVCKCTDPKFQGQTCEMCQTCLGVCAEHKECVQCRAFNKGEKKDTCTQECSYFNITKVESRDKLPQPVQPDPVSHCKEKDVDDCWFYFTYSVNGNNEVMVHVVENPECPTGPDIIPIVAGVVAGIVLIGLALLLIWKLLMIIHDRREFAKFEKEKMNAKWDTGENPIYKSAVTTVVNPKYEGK

Cn1c(=O)n(-c2ccc(C[C@H](NC(=O)c3c(Cl)cccc3Cl)C(=O)O)cc2)c(=O)c2cc(N)ccc21 [Example 107]
IC50 [1]: 0.017 µM | IC50 [2]: 0.0011 µM

CCN(CC)c1ccc2c(c1)c(=O)n(-c1ccc(C[C@H](NC(=O)c3c(Cl)cccc3Cl)C(=O)O)cc1)c(=O)n2C [Example 111]
IC50 [1]: 0.088 µM | IC50 [2]: 0.011 µM

Cn1c(=O)n(-c2ccc(C[C@H](NC(=O)c3c(Cl)cccc3Cl)C(=O)O)cc2)c(=O)c2cc([N+]3(C)CCCC3)ccc21 [Example 113]
IC50 [1]: 0.052 µM | IC50 [2]: 0.0016 µM

O=C(N[C@@H](Cc1ccc(-n2c(=O)c3ccccc3n(Cc3ccc(Cl)cc3)c2=O)cc1)C(=O)O)c1c(Cl)cccc1Cl [Example 117]
IC50 [1]: 0.48 µM | IC50 [2]: 0.019 µM

CN1CCC(=O)N(c2ccc(C[C@H](NC(=O)c3c(Cl)cccc3Cl)C(=O)O)cc2)C1=O [Example 135]
IC50 [1]: 0.57 µM | IC50 [2]: 0.012 µM

O=C(N[C@@H](Cc1ccc(-n2c(=O)oc3ccccc3c2=O)cc1)C(=O)O)c1c(Cl)cccc1Cl [Example 136]
IC50 [1]: 0.565 µM | IC50 [2]: 0.003 µM

O=C(N[C@@H](Cc1ccc(-n2c(=O)oc3c(ccc4ccccc43)c2=O)cc1)C(=O)O)c1c(Cl)cccc1Cl [Example 137]
IC50 [1]: 2.12 µM | IC50 [2]: 0.0112 µM

COc1ccc2c(=O)n(-c3ccc(C[C@H](NC(=O)c4c(Cl)cccc4Cl)C(=O)O)cc3)c(=O)oc2c1 [Example 139]
IC50 [1]: 0.107 µM | IC50 [2]: 0.017 µM

Nc1ccc2c(=O)n(-c3ccc(C[C@H](NC(=O)c4c(Cl)cccc4Cl)C(=O)O)cc3)c(=O)oc2c1 [Example 142]
IC50 [1]: 0.21 µM | IC50 [2]: 0.009 µM

CN1C(=O)N(c2ccc(C[C@H](NC(=O)c3c(Cl)cccc3Cl)C(=O)O)cc2)Cc2ccccc21 [Example 147]
IC50 [1]: 0.107 µM | IC50 [2]: 0.0065 µM

COc1cccc2c(=O)n(-c3ccc(C[C@H](NC(=O)c4c(Cl)cccc4Cl)C(=O)O)cc3)c(=O)n(C)c12 [Example 180]
IC50 [1]: 0.086 µM | IC50 [2]: 0.0054 µM

Cc1cccc2c1c(=O)n(-c1ccc(C[C@H](NC(=O)c3c(Cl)cccc3Cl)C(=O)O)cc1)c(=O)n2C [Example 181]
IC50 [1]: 0.015 µM | IC50 [2]: 0.001 µM

Cn1c(=O)n(-c2ccc(C[C@H](NC(=O)c3c(Cl)cccc3Cl)C(=O)O)cc2)c(=O)c2cccc(Cl)c21 [Example 182]
IC50 [1]: 0.113 µM | IC50 [2]: 0.0062 µM

Cn1c(=O)n(-c2ccc(C[C@H](NC(=O)c3c(Cl)cccc3Cl)C(=O)O)cc2)c(=O)c2cc(Cl)ccc21 [Example 183]
IC50 [1]: 0.025 µM | IC50 [2]: 0.0017 µM

COc1ccc2c(c1)c(=O)n(-c1ccc(C[C@H](NC(=O)c3c(Cl)cccc3Cl)C(=O)O)cc1)c(=O)n2C [Example 184]
IC50 [1]: 0.031 µM | IC50 [2]: 0.0033 µM

Cn1c(=O)n(-c2ccc(C[C@H](NC(=O)c3c(Cl)cccc3Cl)C(=O)O)cc2)c(=O)c2ccc(C(F)(F)F)cc21 [Example 185]
IC50 [1]: 0.012 µM | IC50 [2]: 0.0027 µM

Cc1cccc2c(=O)n(-c3ccc(C[C@H](NC(=O)c4c(Cl)cccc4Cl)C(=O)O)cc3)c(=O)n(C)c12 [Example 186]
IC50 [1]: 0.059 µM | IC50 [2]: 0.0043 µM

Cn1c(=O)n(-c2ccc(C[C@H](NC(=O)c3c(Cl)cccc3Cl)C(=O)O)cc2)c(=O)c2c(Cl)cccc21 [Example 187]
IC50 [1]: 0.026 µM | IC50 [2]: 0.0032 µM

COc1cc2c(=O)n(-c3ccc(C[C@H](NC(=O)c4c(Cl)cccc4Cl)C(=O)O)cc3)c(=O)n(C)c2cc1OC [Example 188]
IC50 [1]: 0.011 µM | IC50 [2]: 0.0027 µM

Cn1c(=O)n(-c2ccc(C[C@H](NC(=O)c3c(Cl)cccc3Cl)C(=O)O)cc2)c(=O)c2cc(F)ccc21 [Example 189]
IC50 [1]: 0.018 µM | IC50 [2]: 0.0011 µM
